Reference: PubChem BioAssay AID1259407 (Chemical Carcinogenesis Research Information System (CCRIS), 2018)
Calls of active or inactive are those of the source. No rule for the calls is given here.

Test system: CCRIS mutagenicity, Ames/micronucleus/aberration tests
Test: CCRIS mutagenicity studies
[1] = Test System: AMES SALMONELLA TYPHIMURIUM, Strain/Indicator: TA98, Metabolic Activation: NONE, Method: PREINCUBATION
[2] = Test System: AMES SALMONELLA TYPHIMURIUM, Strain/Indicator: TA100, Metabolic Activation: NONE, Method: PREINCUBATION
[3] = Test System: AMES SALMONELLA TYPHIMURIUM, Strain/Indicator: TA1535, Metabolic Activation: NONE, Method: PREINCUBATION
[4] = Test System: AMES SALMONELLA TYPHIMURIUM, Strain/Indicator: TA1537, Metabolic Activation: NONE, Method: PREINCUBATION
[5] = Test System: AMES SALMONELLA TYPHIMURIUM, Strain/Indicator: TA98, Metabolic Activation: NONE, Method: STANDARD PLATE
[6] = Test System: AMES SALMONELLA TYPHIMURIUM, Strain/Indicator: TA100, Metabolic Activation: NONE, Method: STANDARD PLATE

CCCCCCCCCCCCCCCCCC(N)=O
mutagenic call [1]: inactive; negative
mutagenic call (Test System: AMES SALMONELLA TYPHIMURIUM, Strain/Indicator: TA98, Metabolic Activation: RAT LIVER S-9, PHENOBARBITAL AND BETA-NAPHTHOFLAVONE, Method: PREINCUBATION): inactive; negative
mutagenic call [2]: inactive; negative
mutagenic call (Test System: AMES SALMONELLA TYPHIMURIUM, Strain/Indicator: TA100, Metabolic Activation: RAT LIVER S-9, PHENOBARBITAL AND BETA-NAPHTHOFLAVONE, Method: PREINCUBATION): inactive; negative
mutagenic call [3]: inactive; negative
mutagenic call (Test System: AMES SALMONELLA TYPHIMURIUM, Strain/Indicator: TA1535, Metabolic Activation: RAT LIVER S-9, PHENOBARBITAL AND BETA-NAPHTHOFLAVONE, Method: PREINCUBATION): inactive; negative
mutagenic call [4]: inactive; negative
mutagenic call (Test System: AMES SALMONELLA TYPHIMURIUM, Strain/Indicator: TA1537, Metabolic Activation: RAT LIVER S-9, PHENOBARBITAL AND BETA-NAPHTHOFLAVONE, Method: PREINCUBATION): inactive; negative
mutagenic call (Test System: E.COLI, Strain/Indicator: WP2UVRA/PKM101, Metabolic Activation: NONE, Method: PREINCUBATION): inactive; negative
mutagenic call (Test System: E.COLI, Strain/Indicator: WP2UVRA/PKM101, Metabolic Activation: RAT LIVER S-9, PHENOBARBITAL AND BETA-NAPHTHOFLAVONE, Method: PREINCUBATION): inactive; negative

COc1c(N)cc(C)c(N)c1C
mutagenic call [5]: inactive; negative
mutagenic call (Test System: AMES SALMONELLA TYPHIMURIUM, Strain/Indicator: TA98, Metabolic Activation: RAT, LIVER, S-9, AROCLOR 1254, Method: STANDARD PLATE): inactive; negative
mutagenic call [6]: inactive; negative
mutagenic call (Test System: AMES SALMONELLA TYPHIMURIUM, Strain/Indicator: TA100, Metabolic Activation: RAT, LIVER, S-9, AROCLOR 1254, Method: STANDARD PLATE): inactive; negative
mutagenic call (Test System: AMES SALMONELLA TYPHIMURIUM, Strain/Indicator: TA1535, Metabolic Activation: NONE, Method: STANDARD PLATE): inactive; negative
mutagenic call (Test System: AMES SALMONELLA TYPHIMURIUM, Strain/Indicator: TA1535, Metabolic Activation: RAT, LIVER, S-9, AROCLOR 1254, Method: STANDARD PLATE): inactive; negative
mutagenic call (Test System: AMES SALMONELLA TYPHIMURIUM, Strain/Indicator: TA1537, Metabolic Activation: NONE, Method: STANDARD PLATE): inactive; negative
mutagenic call (Test System: AMES SALMONELLA TYPHIMURIUM, Strain/Indicator: TA1537, Metabolic Activation: RAT, LIVER, S-9, AROCLOR 1254, Method: STANDARD PLATE): inactive; negative
mutagenic call (Test System: AMES SALMONELLA TYPHIMURIUM, Strain/Indicator: TA1538, Metabolic Activation: NONE, Method: STANDARD PLATE): inactive; negative
mutagenic call (Test System: AMES SALMONELLA TYPHIMURIUM, Strain/Indicator: TA1538, Metabolic Activation: RAT, LIVER, S-9, AROCLOR 1254, Method: STANDARD PLATE): inactive; negative

Oc1cc(O)c2c(c1)O[C@H](c1ccc(O)c(O)c1)[C@@H](O)C2
mutagenic call (Test System: Ames Salmonella typhimurium, Strain/Indicator: TA102, Metabolic Activation: None, Method: Preincubation): inactive; negative
mutagenic call (Test System: Ames Salmonella typhimurium, Strain/Indicator: TA102, Metabolic Activation: Rat, Liver, S-9, Aroclor 1254 in 0.154 M KCl, Method: Preincubation): inactive; negative

CNC(=O)C[C@@H](N)C(=O)N[C@@H](C(=O)N[C@@H]1C(=O)N2[C@@H]1SC(C)(C)[C@@H]2C(=O)O)c1ccc(O)cc1
mutagenic call [1]: inactive; negative
mutagenic call (Test System: AMES SALMONELLA TYPHIMURIUM, Strain/Indicator: TA98, Metabolic Activation: RAT, LIVER, S-9, PHENOBARBITAL AND BENZOFLAVONE, Method: PREINCUBATION): inactive; negative
mutagenic call [2]: inactive; negative
mutagenic call (Test System: AMES SALMONELLA TYPHIMURIUM, Strain/Indicator: TA100, Metabolic Activation: RAT, LIVER, S-9, PHENOBARBITAL AND BENZOFLAVONE, Method: PREINCUBATION): inactive; negative
mutagenic call [3]: inactive; negative
mutagenic call (Test System: AMES SALMONELLA TYPHIMURIUM, Strain/Indicator: TA1535, Metabolic Activation: RAT, LIVER, S-9, PHENOBARBITAL AND 5,6 BENZOFLAVONE, Method: PREINCUBATION): inactive; negative
mutagenic call [4]: inactive; negative
mutagenic call (Test System: AMES SALMONELLA TYPHIMURIUM, Strain/Indicator: TA1537, Metabolic Activation: RAT, LIVER, S-9, PHENOBARBITAL AND 5,6 BENZOFLAVONE, Method: PREINCUBATION): inactive; negative
mutagenic call (Test System: AMES SALMONELLA TYPHIMURIUM, Strain/Indicator: TA1538, Metabolic Activation: NONE, Method: PREINCUBATION): inactive; negative
mutagenic call (Test System: AMES SALMONELLA TYPHIMURIUM, Strain/Indicator: TA1538, Metabolic Activation: RAT, LIVER, S-9, PHENOBARBITAL AND 5,6 BENZOFLAVONE, Method: PREINCUBATION): inactive; negative
mutagenic call (Test System: E. COLI, Strain/Indicator: WP2 UVRA, Metabolic Activation: NONE, Method: PREINCUBATION): inactive; negative
mutagenic call (Test System: E. COLI, Strain/Indicator: WP2 UVRA, Metabolic Activation: RAT, LIVER, S-9, PHENOBARBITAL AND 5,6 BENZOFLAVONE, Method: PREINCUBATION): inactive; negative

Cc1ccc(N)c(O)c1
mutagenic call (Test System: AMES SALMONELLA TYPHIMURIUM, Strain/Indicator: TA98, Metabolic Activation: HAMSTER LIVER S-9, AROCLOR 1254, Method: STANDARD PLATE): inactive; negative
mutagenic call [5]: inactive; negative
mutagenic call (Test System: AMES SALMONELLA TYPHIMURIUM, Strain/Indicator: TA98, Metabolic Activation: RAT LIVER S-9, AROCLOR 1254, Method: STANDARD PLATE): inactive; negative
mutagenic call (Test System: AMES SALMONELLA TYPHIMURIUM, Strain/Indicator: TA100, Metabolic Activation: HAMSTER LIVER S-9, AROCLOR 1254, Method: STANDARD PLATE): inactive; negative
mutagenic call [6]: active; positive
mutagenic call (Test System: AMES SALMONELLA TYPHIMURIUM, Strain/Indicator: TA100, Metabolic Activation: RAT LIVER S-9, AROCLOR 1254, Method: STANDARD PLATE): inactive; negative
mutagenic call (Test System: MOUSE LYMPHOMA, Strain/Indicator: L5178Y (TK+/TK-), Metabolic Activation: NONE, Method: SUSPENSION/PLATE): active; positive. reevaluation of results: positive
mutagenic call (Test System: MOUSE LYMPHOMA, Strain/Indicator: L5178Y (TK+/TK-), Metabolic Activation: RAT, LIVER, S-9, AROCLOR 1254, Method: SUSPENSION/PLATE): active; positive. reevaluation of results: equivocal

Nc1ccc(/C=C/c2cccc(N)c2)cc1
mutagenic call (Test System: AMES SALMONELLA TYPHIMURIUM, Strain/Indicator: TA98(1,8-DNP6), Metabolic Activation: NONE, Method: STANDARD PLATE): inactive; negative
mutagenic call (Test System: AMES SALMONELLA TYPHIMURIUM, Strain/Indicator: TA98(1,8-DNP6), Metabolic Activation: S-9, Method: STANDARD PLATE): active; positive
mutagenic call [5]: active; positive
mutagenic call (Test System: AMES SALMONELLA TYPHIMURIUM, Strain/Indicator: TA98, Metabolic Activation: S-9, Method: STANDARD PLATE): active; positive
mutagenic call [6]: inactive; negative
mutagenic call (Test System: AMES SALMONELLA TYPHIMURIUM, Strain/Indicator: TA100, Metabolic Activation: S-9, Method: STANDARD PLATE): active; positive

[N-]=[N+]=CC(=O)OC[C@H](N)C(=O)O
mutagenic call [6]: active; positive
mutagenic call (Test System: E. COLI WP2, Strain/Indicator: WP2, Metabolic Activation: NONE, Method: STANDARD PLATE): active; positive
mutagenic call (Test System: UDS RAT HEPATOCYTES, Strain/Indicator: BROMODEOXYURIDINE INCORP, Metabolic Activation: NONE, Method: FLOW CYTOMETRIC ANALYSIS): active; positive
mutagenic call (Test System: UDS RAT HEPATOCYTES, Strain/Indicator: THY INCORP, Metabolic Activation: NONE, Method: AUTORADIOGRAPHY): active; positive

CCCCN[N+](=O)[O-]
mutagenic call (Test System: E. COLI, Strain/Indicator: WP2 (HCR-), Metabolic Activation: NONE): active; positive

BrCc1ccccc1CBr
mutagenic call [5]: inactive; negative
mutagenic call [6]: inactive; negative
